Data on 6 molecules can be found in paper PMC3669129, “Fast, Non-Competitive and Reversible Inhibition of NMDA-Activated Currents by 2-BFI Confers Neuroprotection” (PLoS ONE, 2013).

Series [1] concerns cortical neurons. Put plainly: Neuroprotection against NMDA excitotoxicity (nuclear staining, Alamar Blue viability). The note with it: for number of condensed nuclei (NMDA-induced neuronal death): nuclear staining of cortical neurons treated with NMDA. The series is classed as cell-based, rat. The protocol: (§1) Primary cortical neurons were prepared from embryonic E18 Sprague-Dawley rats and cultured in neurobasal medium supplemented with B27 [24]. Briefly, cortices were explanted and cleaned free of meninges. The cortices were placed in D-Hanks’ solution and digested at 37°C with 0.05% trypsin-EDTA for 6 min. They were subsequently resuspended in DMEM medium supplemented with 20% fetal calf serum and 1% penicillin/streptomycin to stop digestion and were further dissociated into individual cells by trituration and plated on poly-D-lysine-coated glass coverslips in culture dishes at a density of 7×10^5 cells/ml. After the neurons had attached to the coverslips for 2 hrs, the medium was changed to neurobasal medium containing 2% B27 supplement. Neurons were incubated at 37°C in a humidified atmosphere of 5% CO2 for 7–8 days before electrophysiological experiments.
After 7 days-in-vitro, cortical neurons were treated with the specific inhibitor for 15 min prior to the addition of 100 µM glutamate or 200 µM NMDA at 37°C. The plates were then incubated for up to 24 h at 37°C in the presence or absence of inhibitors. Untreated cells were also included as controls. At the end of the treatment period, cells were either fixed for staining or subjected to a neuronal viability assay using Alamar Blue (Invitrogen). Stained cells were examined under a fluorescent microscope (Carl Zeiss, AX10 vert 200M), and digital images were taken and analyzed using Image J software (http://rsbweb.nih.gov/ij/). The viability of cortical neurons treated with NMDA, and with or without inhibitors as mentioned, was assayed using an Alamar Blue assay (Invitrogen). Briefly, a 1∶10 dilution of Alamar blue was added to cells for 1 h at 37°C. One third of the medium was removed and read in a 96-well plate using a plate reader with λEx = 530 nm and λEm = 590 nm. At minimum, a triplicate reading was obtained per experiment with three independent repeats.

The subject of series [2] is rat cortical neurons. Put plainly: Effect of 2-BFI alone on neuronal excitability (current and membrane potential). The format is cell-based. The settings on record: 3–1000 µM 2-BFI. The protocol: as §1
(§2) Whole-cell patch-clamp recordings were carried out at room temperature (22–25°C) using an Axopatch 700A patch-clamp amplifier (Axon Instruments, Inverurie, Scotland). Data acquisition was achieved using a DigiData 1322A with pClamp 9.0 software. The acquisition rate was 10 kHz and signals were filtered at 5 kHz. Patch electrodes were pulled with a Flaming/Brown micropipette puller (Sutter Instruments, Novato, CA) and fire-polished. […]

Series [3] relates to spectrin breakdown product (SBP). The format is cell-based, rat. The note with it: 2 h treatment with NMDA; Western blot. (In western blotting, separated proteins are transferred to a membrane and probed.)
Series [4] concerns transient cerebral ischemia. On the set-up: method as in PMID 19508825, PMID 20840843, PMID 22771326. The settings on record: rodent model of stroke; cited from earlier work.
In series [5] the test system is rodents. More on the design: method as in PMID 19508825, PMID 20840843, PMID 22771326, PMID 19083996, PMID 21303658. The note with it: previous animal studies; cited from earlier work.
The target of series [6] is [3H]2-BFI binding sites (I2-imidazoline receptors). On the set-up: method as in PMID 9228188. The note with it: cerebral cortex; read-out: Ki for a single class of [3H]2-BFI binding sites; cited from earlier work.
The test system of series [7] is NMDA receptors. Put plainly: Whole-cell patch-clamp recording of NMDA-activated current in cultured cortical neurons. The settings on record: for EC50: n = 6–8. The format is cell-based, rat. The protocol: as §1
Whole-cell patch-clamp recordings were carried out at room temperature (22–25°C) using an Axopatch 700A patch-clamp amplifier (Axon Instruments, Inverurie, Scotland). Data acquisition was achieved using a DigiData 1322A with pClamp 9.0 software. The acquisition rate was 10 kHz and signals were filtered at 5 kHz. Patch electrodes were pulled with a Flaming/Brown micropipette puller (Sutter Instruments, Novato, CA) and fire-polished. […] For the voltage-clamp recordings, the capacity transients were cancelled using the resistance capacitance circuit within the amplifier. After the formation of whole-cell configuration, access resistances were generally <15 MΩ. Series resistance compensation was set to 70%–90%. The liquid junction potential was approximately 2 mV and was auto-adjusted each time by pipette offset. To record NMDA/AMPA-activated currents, the external solution [(containing (mM): NaCl 150, KCl 5, CaCl2 0.2, glucose 10 and HEPES 10, pH adjusted to 7.4 with NaOH)] and the pipette solution [containing (mM): KCl 140, MgCl2 2.5, HEPES 10, EGTA 11, ATP 5, pH adjusted to 7.3 with KOH] were used. For voltage-clamp recordings, the membrane potential was held at −70 mV, unless noted otherwise. Drug solutions were prepared in extracellular solutions and applied to neurons by pressure using the 8-Channel Focal Perfusion System (ALA Scientific Instruments, Farmingdale, NY). Neurons were bathed constantly in extracellular solution between drug applications. Drug solution exchange was accomplished by electronic control.
Patch-clamp data was processed using Clampfit 9.0 (Axon Instruments) and then analyzed in Origin 7.5 (OriginLab, Northampton, MA). The dose-response curve was fitted to the logistic equation: y = (A1–A2)/[1+ (x/x0 )^p]+A2, where y is the response, A1 and A2 are the maximum and minimum response, respectively, x0 is the concentration corresponding to half-maximal effect, x is the drug concentration, and p is the Hill coefficient.
The onset and offset rates of 2-BFI were measured from the recordings by the binding kinetic protocol, where a single concentration of 2-BFI was applied in the constant presence of agonists. Tauon and Tauoff were obtained by a single exponential function fit: I = A×[1-exp(-t/τ)]+I 0, where I is the current, I 0 is the steady-state amplitude of the current, A is the difference between the peak and steady state current amplitudes, t is time, and τ is the time constant.
(Patch clamp records ionic current or voltage across a cell membrane.)

The subject of series [8] is NMDA receptor-mediated [Ca2+]i influx. Kind of series: Ratiometric Fura-2 measurement of NMDA-evoked [Ca2+]i in cortical neurons. The format is cell-based, mouse. The note with it: for reversibility of block of NMDA receptor-mediated [Ca2+]i influx on removal of inhibitor: MK801 10 µM, 2-BFI 200 µM, memantine 10 µM, NMDA 100 µM, wash with PSS, n = 20 cells per treatment. The protocol:
Ratiometric measurement of [Ca^2+]i was performed using Fura-2 AM [25]. Briefly, mouse cortical neurons at 7 days-in-vitro on glass coverslips were loaded with 5 µM Fura-2-AM (Molecular Probes, Eugene, CA) plus 0.02% pluronic (Life Technologies, INC, Burlington, ON, Canada) for 30 min at 37°C. After rinsing with PSS Mg^2+ free buffer containing 2 mM HEPES (pH 7.2), 140 mM NaCl, 5 mM KCl, 2.3 mM CaCl2, and 10 mM glucose, and stabilized in the same buffer for 5 min, Fura-2 intensities were measured using a Northern Eclipse Digital Ratio Image System (EMPIX, Mississauga, ON, Canada) with an Axiovert 200 camera and light source (Zeiss, Thornwood, NY). Fura-2 fluorescence was measured at 510 nm emission with 340/380 nm dual excitation selected by a DG-5 system (Sutter Instrument Company, Novato, CA). [Ca^2+]i concentration was represented by the ratio of florescence intensity between the two excitation wavelengths of R340/380 of Fura-2 after correction for background. R340/380 for 10 cells in one field of each coverslip was averaged. The basal level of [Ca^2+]i was recorded for 20 sec, followed by the application of inhibitors. […] [Ca^2+]i was recorded for 60–100 sec. After washing with PSS buffer for 300 sec, PSS buffer containing 45 mM KCl was added to neurons to record changes in [Ca^2+]i for 60 sec to show viability of neurons. All measurements were repeated for at least 3 times. The data was analyzed using Microsoft Excel and presented as the mean of three experiments.

On the set-up of series [9]: method as in PMID 9228188. The settings on record: cited from earlier work.
For series [10], the system named is AMPA receptor. Put plainly: Whole-cell patch-clamp recording of AMPA-activated current in cultured cortical neurons. The series is classed as cell-based, rat. The note with it: 200 µM 2-BFI; 100 µM AMPA; paired t-test P>0.05, n = 8. The protocol:
as §1, §2

The subject of series [11] is NMDAR. The settings on record: read-out: IC50 of memantine; at −70 mV; ref not given; cited from earlier work.

Where two headings read alike, the source gives them in different places.

One may read the Ki as the dissociation constant of the complex between target and ligand, obtained from inhibition or displacement. Broadly, the IC50 is the point on the concentration scale where inhibition reaches its midpoint. A word on the EC50: it is the midpoint of the concentration-response curve.

Consider `c1ccc2oc(C3=NCCN3)cc2c1` [2-BFI, 2-(2-benzofu-ranyl)-2-imidazoline], for which the “protection against NMDA toxicity, Alamar blue assay” value in series [1] (dose- and time-course, paired t-test P<0.01, n = 8) was “Dose-dependent neuroprotection”. The “number of condensed nuclei (NMDA-induced neuronal death)” value (“number of condensed nuclei” below) in [1] was “reduced”. The “effect of 2-BFI alone on membrane potential” value in series [2] is “nor affected the membrane potential”. Besides, in [2] (−50 mV), the “current induced by 2-BFI alone” value was “neither induced any detectable current”. Besides, in [3], the “level of spectrin breakdown product (SBP)” value (from here on “level”) is “effectively reduced”. The “neuroprotection against transient cerebral ischemia” value in series [4] was “potently and dose-dependently neuroprotective”. For the same molecule, in series [5], the “side effects of administration to rodents” value is given as “no visible side effects”. For the same molecule, the inhibition constant (Ki) in series [6] was 0.0098 µM. Also, the “average reversal potential of current activated by NMDA and glycine” value in series [7] (30 µM NMDA and 1 µM glycine in the presence of 200 µM 2-BFI, n = 6) worked out at 2.8±3.2 mV. In [7] (30 µM NMDA plus 1 µM glycine, 2-BFI 10–2000 µM pre-applied 30 s, −70 mV, n = 6, read-out: IC50 for inhibition of NMDA-activated current), the IC50 is 124 ± 13.1 µM. In addition, the “slope factor of the concentration-response curve for inhibition of NMDA-activated current” value in [7] (30 µM NMDA plus 1 µM glycine, −70 mV, n = 6) was found to be 1.2±0.1. In series [7] (200 µM 2-BFI), the “effect on Emax of NMDA and glycine” value is recorded as “greatly reduced”. Besides, in series [7] (200 µM 2-BFI, 30 µM NMDA plus 1 µM glycine, paired t-test P<0.001, n = 8), the “inhibition of NMDA-induced currents” value is reported as “marked inhibition”. Further, in series [7] (200 µM 2-BFI, membrane potentials from −60 mV to +60 mV, ANOVA P>0.05, n = 6), the “voltage dependence of average inhibition of NMDA-activated current” value was “not significantly different”. For the same molecule, in series [7] (EC50s and slope factors of NMDA and glycine unchanged by 200 µM 2-BFI), the “mode of NMDAR antagonism” value is reported as “non-competitive antagonist”. In series [7] (after a few seconds of washing), the “reversibility of inhibition of NMDA-activated current” value is reported as “fully reversible”. Besides, the Kd in [7] (from fitted kinetic values, read-out: Kd = Koff/Kon) amounted to 305.94 ± 0.3 µM. In addition, the Koff in [7] (kinetic protocol, constant presence of 30 µM NMDA plus 1 µM glycine, single exponential fit) worked out at 0.67 ± 0.02 s⁻¹. Besides, in series [8] (10–1000 µM 2-BFI, 100 µM NMDA, n = 20 cells per dose point), the “effect on NMDA-evoked [Ca2+]i influx” value is recorded as “significantly suppressed”. For the same molecule, in [8], the “reversibility of block of NMDA receptor-mediated [Ca2+]i influx on removal of inhibitor” value (from here on “reversibility of block … of inhibitor”) is recorded as “able to respond to NMDA (100 µM) almost immediately”. Moreover, in [9], the “crossing of the blood brain barrier” value is reported as “able to cross the blood brain barrier”. The “inhibition of AMPA-induced currents” value in series [10] was “did not inhibit”.

On to `c1ccc2c(c1)OCC(C1=NCCN1)O2` (stereo not shown) [Idazoxan], for which, in series [4], the “neuroprotection against transient cerebral ischemia” value was “potently and dose-dependently neuroprotective”. Moreover, in [9], the “crossing of the blood brain barrier” value is given as “readily cross the blood brain barrier”.

`C[C@]12N[C@H](Cc3ccccc31)c1ccccc12` [MK801]: the “number of condensed nuclei” value in series [1] is listed as “reduced”. The “level” value in [3] is reported as “effectively reduced”. In addition, the “reversibility of block … of inhibitor” value in [8] is reported as “non-reversibly blocked”.

As for `CN[C@H](CC(=O)O)C(=O)O` [NMDA, N-methyl-D-aspartic acid], the “slope factor of NMDA concentration-response curve” value is listed as 1.25±0.1 in series [7] (in the absence of 2-BFI, 1 µM glycine) and 1.25±0.6 in [7] (in the presence of 200 µM 2-BFI, 1 µM glycine). Further, the EC50 in [7] (in the absence of 2-BFI, 1 µM glycine, read-out: EC50 of NMDA for current activation) was 33.7 ± 4.3 µM.

For the molecule `NCC(=O)O` [glycine], the “slope factor of glycine concentration-response curve” value in series [7] (in the absence of 2-BFI, 30 µM NMDA) worked out at 0.39±0.2; in series [7] (in the presence of 200 µM 2-BFI, 30 µM NMDA), 0.58±0.6. In series [7] (in the absence of 2-BFI, 30 µM NMDA, read-out: EC50 of glycine for current activation), the EC50 is 1.52 ± 1.6 µM.

For `CC12CC3CC(C)(C1)CC(N)(C3)C2` [memantine], the “number of condensed nuclei” value in series [1] is on record as “reduced”. Besides, the “level” value in series [3] is “effectively reduced”. Moreover, the half-maximal inhibitory concentration (IC50) in series [11] is 1.2 µM. Also, the “reversibility of block … of inhibitor” value in [8] is given as “able to respond to NMDA (100 µM) almost immediately”.
